{
  "source": "paper PMC10707468",
  "about": "“Pharmacokinetics of Novel Dopamine Transporter Inhibitor CE-123 and Modafinil with a Focus on Central Nervous System Distribution” (International Journal of Molecular Sciences, 2023)",
  "key": {"[1]": {"tested_on": "cerebEND in vitro model of the blood–brain barrier", "settings": "cerebEND; cited from earlier work"}, "male Sprague-Dawley rats": {"tested_on": "male Sprague-Dawley rats", "parameters": "method as in PMID 29230168, PMID 29410048, PMID 33940050", "settings": "cited from earlier work"}, "[2]": {"assay": "In vivo rat tissue biodistribution / neuroPK study, 4 h intravenous constant infusion", "parameters": "species or system Sprague-Dawley rats", "settings": "for metabolite detection in rat samples: after 4 h iv infusion 20 mg/kg of parent", "method": "The results are summarized in Figure 4 and Table S2 within Supplementary Materials.\nIn order to minimize the usage of animals and gain high confidence in the tissue distribution, a 4 h constant intravenous infusion study was designed based on the systemic pharmacokinetic parameters determined elsewhere. The catheters were surgically implanted a day before the PK experiment. The rats (n = 3 per compound) were then individually placed into a CMA 120 system (CMA, Solna, Sweden). […] A dose of 20 mg/kg was administered as a combination of an initial short 10 min infusion as a loading dose followed by a constant infusion up to 4 h, targeting a steady-state total plasma concentration of around 1000 ng/mL for each compound (based on the pilot study results). Blood was collected into heparinized Eppendorf tubes via a femoral artery catheter at 0 (before infusion starts) 1, 2, 3, and 4 h after the infusion started and immediately centrifuged at 10,000 rpm for 5 min at +4 °C. Plasma was then collected and kept at −20 °C. At 4 h, the rats were anesthetized via inhalation of 2.5% isoflurane (Abbot Scandinavia, Solna, Sweden), balanced with 1.5 L/min oxygen, after which the terminal blood and tissue samples were collected. […] The tissue samples (brain, spinal cord, liver, and kidney) were rapidly removed, pre-weighed into a 2 mL hard tissue homogenizing tube with mini-beads, and subsequently homogenized in 2 volumes of MQ water using a 4-Place Bead Mill Homogenizer (VWR, Stockholm, Sweden) at the maximal speed for 2 min and thereafter kept at +4 °C. The plasma and tissue homogenate samples were stored at −20 °C until LC–MS analysis.\nFor all the rat plasma and CSF samples, an aliquot of 50 µL was spiked with 50 µL of 4% PA in water containing the IS solution to disrupt the drug–protein binding. For all rat tissue samples (brain, spinal cord, liver, and kidney), an aliquot of 50 µL was spiked with 50 µL ice-cold ACN containing the IS solution for protein precipitation. The samples were vortexed and spun down for 10 min (3000× g, 4 °C) and 25 µL of clear supernatant was diluted with 225 µL 0.1% FA in water to achieve 10% of ACN in the solution. SPE clean-up was performed using an Oasis PRiME HLB µElution 96-well plate, 3 mg (Waters Corporation, Vienna, Austria). The SPE cartridges were preconditioned and equilibrated with 1 × 200 µL ACN and 0.1% FA in water each. The samples were loaded onto the cartridges and washed with 2 × 200 µL 0.1% FA in water and 1 × 200 µL ACN/0.1% FA in water 10:90 (v:v). The analytes were eluted from the SPE cartridge into a collection plate with 2 × 25 µL ACN/0.1% FA in water 70:30 (v:v). All the samples were diluted with 50 µL of 0.1% FA in water and 10 µL of sample was injected onto the LC–HRMS system.\nAll samples, blanks, standards, and quality control samples in the respective matrices were analyzed on a UHPLC system (Dionex UltiMate 3000 RSLC series system, Thermo Fisher Scientific, Inc., Dreieich, Germany) coupled with a high-resolution mass spectrometer (maXis HD Q-TOF, Bruker Daltonics, Bremen, Germany) equipped with a heated electrospray ionization (ESI) source. Reversed-phase chromatographic separation was performed on a Kinetex Phenyl-Hexyl column (2.6 µm, 2.1 × 50 mm, Phenomenex, Torrance, CA, USA), equipped with a precolumn (2.6 µm, Phenomenex, Torrance, CA, USA), at a flow rate of 0.4 mL/min. Eluent A was water containing 0.1% FA and eluent B ACN. A multi-step gradient was optimized as follows: the initial mobile phase composition (5% eluent B) was held constant for 1 min, followed by a linear increase to 30% eluent B until minute 1.5, to 40% eluent B until minute 5.5, and to 95% eluent B until minute 6. After a hold time of 2 min, the column was re-equilibrated for 2.5 min at the initial conditions (5% eluent B). The column compartment and the autosampler were maintained at 40 °C and at 8 °C, respectively. […]"}, "[3]": {"assay": "In vitro metabolic stability in human liver microsomes", "type": "in vitro ADME", "settings": "R-modafinil 1, 5, 10, 50 µM", "method": "An in vitro metabolism assay to study the phase I metabolism in the HLMs was in-house-developed. Optimization of the protocol included the test compound concentration (1, 5, 10 m and 50 µM) and extraction solvents (ACN and MeOH). […] The metabolic assay was initiated by the addition of 10 mM NADPH to the reaction solution and terminated after 0, 2.5, 5, 15, 30, 45, and 60 min via the addition of 200 µL of ice-cold MeOH containing the IS solution. The samples were than vortexed and spun for 15 min (14,000× g, 4 °C). The supernatant was collected, evaporated to dryness using the Concentrator plus (Eppendorf), and reconstituted with 100 µL of ACN/0.1% FA in water 10:90 (v:v). To ensure that the assay was performing adequately, the incubation of 1 µM diazepam at the same assay conditions as described was conducted, and the formation of its metabolites temazepam and nordazepam was monitored. A negative control included the absence of NADPH, the test compound, or HLMs during assay. […] The metabolic stability curves of the tested compounds were established by plotting the incubation time against the natural logarithm of the % parent drug remaining. The slope (k) of the linear part was utilized for the in vitro half-life (t1/2, min) as ln2/k. The V (µL/mg) was calculated as the volume of the reaction solution (100 µL) divided by the protein amount in the incubation (0.5 mg). The protein amount was predetermined by the supplier and the content was checked by using a Pierce™ BCA Protein Assay Kit (Thermo Fisher Scientific, Vienna, Austria) for each freshly opened tube. The intrinsic clearance (CLint, µL/min/mg) was calculated according to the following equation:(7) CLint=0.693/t1/2·V […]"}, "[4]": {"assay": "In vitro plasma stability assay", "type": "in vitro ADME", "settings": "rat plasma, 37 °C", "method": "In vitro plasma stability assay was used in the scope of the validation studies. Briefly, 40 μL of blank rat plasma or blank rat plasma containing 10% DMF as an inhibitor was first pre-warmed for 5 min at 37 °C using a Thermomixer® comfort (Eppendorf, Hamburg, Germany). […] The reaction was terminated after 0, 1, 2, and 4 h, via the addition of 50 μL of ice-cold ACN containing the IS solution. The samples were centrifuged for 10 min at 3000× g at 4 °C. The supernatant of all samples was diluted with 0.1% FA in water, 1:2 (v:v), and 10 µL of the sample was injected onto the LC–HRMS system."}, "CYP1A2": {"tested_on": "CYP1A2", "settings": "ref Robertson et al. (2000) [72]; cited from earlier work"}, "CYP2B6": {"tested_on": "CYP2B6", "settings": "ref Robertson et al. (2000) [72]; cited from earlier work"}, "CYP2C19": {"biological_target": "CYP2C19 (Homo sapiens, UniProt P33261)", "sequence (P33261 whole entry)": "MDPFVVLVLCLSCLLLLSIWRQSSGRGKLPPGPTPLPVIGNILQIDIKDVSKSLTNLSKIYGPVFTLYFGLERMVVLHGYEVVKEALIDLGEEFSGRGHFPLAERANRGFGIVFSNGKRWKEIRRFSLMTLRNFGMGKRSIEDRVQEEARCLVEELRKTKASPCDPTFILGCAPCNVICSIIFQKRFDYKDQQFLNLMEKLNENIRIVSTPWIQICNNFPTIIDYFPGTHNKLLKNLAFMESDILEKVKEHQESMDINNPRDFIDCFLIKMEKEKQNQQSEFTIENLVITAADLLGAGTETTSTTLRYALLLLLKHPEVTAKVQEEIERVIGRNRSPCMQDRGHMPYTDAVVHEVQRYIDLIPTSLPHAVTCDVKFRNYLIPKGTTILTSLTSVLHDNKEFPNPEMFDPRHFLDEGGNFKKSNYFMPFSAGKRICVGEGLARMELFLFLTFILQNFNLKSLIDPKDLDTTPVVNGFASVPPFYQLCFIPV", "settings": "in HLMs; ref Robertson et al. (2000) [72]; cited from earlier work"}, "CYP2C9": {"biological_target": "CYP2C9 (Homo sapiens, UniProt P11712)", "sequence (P11712 whole entry)": "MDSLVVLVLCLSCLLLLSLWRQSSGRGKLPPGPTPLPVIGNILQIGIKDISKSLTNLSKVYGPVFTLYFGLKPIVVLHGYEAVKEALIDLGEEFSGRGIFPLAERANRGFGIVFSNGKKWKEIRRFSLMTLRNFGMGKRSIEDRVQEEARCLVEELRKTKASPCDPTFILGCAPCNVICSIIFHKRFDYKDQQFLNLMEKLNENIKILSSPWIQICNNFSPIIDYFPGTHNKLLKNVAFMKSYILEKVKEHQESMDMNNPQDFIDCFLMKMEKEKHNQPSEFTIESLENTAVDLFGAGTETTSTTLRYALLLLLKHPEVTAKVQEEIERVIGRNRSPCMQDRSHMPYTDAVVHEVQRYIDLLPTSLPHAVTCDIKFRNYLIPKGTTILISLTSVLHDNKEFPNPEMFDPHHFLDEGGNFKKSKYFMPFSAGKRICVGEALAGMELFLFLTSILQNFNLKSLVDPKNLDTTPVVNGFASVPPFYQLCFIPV", "settings": "primary cell cultures of human hepatocytes; ref Robertson et al. (2000) [72]; cited from earlier work"}},
  "data": [
    {"smiles": "[O-][S+](c1cncs1)C(c1ccccc1)c1ccccc1", "note": "(stereo not shown) [CE-123, 5-[(Diphenylmethyl)sulfinyl]thiazole]", "values": [
      {"measurement": "ability to cross in vitro model of the BBB", "setting": "[1]", "value": "could penetrate the BBB in a similar manner to diazepam"},
      {"measurement": "cognitive flexibility", "setting": "male Sprague-Dawley rats; male Sprague-Dawley rats, without impulsive responding, compared to R-modafinil", "value": "enhance the cognitive flexibility"},
      {"measurement": "memory acquisition and memory retrieval", "setting": "male Sprague-Dawley rats; rats, doses that did not change locomotor activity", "value": "enhance memory acquisition and memory retrieval"}
    ]},
    {"smiles": "O=C(O)C[S+]([O-])C(c1ccccc1)c1ccccc1", "note": "(stereo not shown) [modafinic acid]", "values": [
      {"measurement": "metabolite detection in rat samples", "setting": "[2]", "value": "detected together in the plasma, CSF, liver, and kidneys"},
      {"measurement": "metabolite formation during HLM incubation of R-modafinil", "setting": "[3]", "value": "not detected"},
      {"measurement": "metabolite detection during plasma incubation of R-modafinil", "setting": "[4]", "value": "detected at the 2 and 4 h time points"}
    ]},
    {"smiles": "NC(=O)CS(=O)(=O)C(c1ccccc1)c1ccccc1", "note": "[modafinil sulfone]", "values": [
      {"measurement": "metabolite detection in rat samples", "setting": "[2]", "value": "detected together in the plasma, CSF, liver, and kidneys"},
      {"measurement": "detection in rat brain and spinal cord tissue", "setting": "[2]; after 4 h iv infusion of R-modafinil 20 mg/kg, S/N below LOQ", "value": "detected"},
      {"measurement": "metabolite formation during HLM incubation of R-modafinil", "setting": "[3]", "value": "observed at all concentrations"}
    ]},
    {"smiles": "NC(=O)C[S+]([O-])C(c1ccccc1)c1ccccc1", "note": "(stereo not shown) [modafinil, 2-[(Diphenylmethyl)sulfinyl]acetamide]", "values": [
      {"measurement": "CYP1A2 induction", "setting": "CYP1A2", "value": "modestly induces"},
      {"measurement": "CYP2B6 induction", "setting": "CYP2B6", "value": "modestly induces"},
      {"measurement": "CYP2C19 inhibition", "setting": "CYP2C19", "value": "reversible inhibition"},
      {"measurement": "CYP2C9 activity", "setting": "CYP2C9", "value": "apparent suppression"}
    ]}
  ]
}
